Experimental data reported in patent US20230241088A1, “COMPOSITION FOR PREVENTING OR TREATING LUNG CANCER COMPRISING ORTHO-TOPOLIN RIBOSIDE AS ACTIVE INGREDIENT” (CHUNG-ANG UNIVERSITY INDUSTRY-ACADEMY COOPERATION FOUNDATION, priority 2022, published 2023).

Key:
A549 cells = experiment: Glycolytic function analysis (Seahorse XFe24, glycoPER); type: cell-based, Human; details: oTR 5, 10, and 50 μM, 48 hours, FIG. 5A
Method: Mitochondrial and glycolytic functions were assessed using Seahorse XFe24 analyzer (Agilent Technologies, Lexington, Mass., USA). A549 cells were seeded in a cell culture plate at a density of 1.5×10^4 cells/well. Cells were treated with oTR (5, 10, and 50 μM) for 48 hours after achieving approximately 70-80% confluency. The glycolytic and mitochondrial functions were determined by measuring the proton efflux rate (PER) and oxygen consumption rate (OCR), respectively. Glycolytic PER (glycoPER) was obtained by subtracting mitochondria-derived protons from the total PER. The analyses were conducted according to the manufacturer's instructions.
To investigate real-time changes in cellular metabolic functions, glycoPER (pmol H+/min) and OCR were analyzed (FIG. 5). GlycoPER reflects glycolytic functions, and OCR reflects mitochondrial respiration. […] Measurement of compensatory glycolysis was achieved by blocking oxidative phosphorylation using rotenone/antimycin.

[1] = system: p-ERK, p-AKT, cleaved caspase-3, LC-III in A549 cells; experiment: Immunoblot analysis of cell lysates; type: cell-based, Human; details: NSCLC cells
Method: The immunoblot analysis was carried out according to a previously described method. A549 cells (4×10^5) were grown to approximately 70-80% confluency and treated with oTR (5, 10, and 50 μM) for 48 hours. The cell lysates and tissue lysates were prepared and subjected to SDS-PAGE for immunoblotting with the respective antibodies. Anti-caspase-3 (9662), anti-p-AKT (4058), and anti-AKT (9272) antibodies were purchased from Cell Signaling Technology (Danvers, Mass., USA). Anti-ERK1/ERK2 (MAB1576) and anti-p-ERK1/ERK2 (AF1018) were purchased from R&D Systems (Minneapolis, Minn., USA). Anti-LC-III (NB100-2331) antibody was purchased from Novus Biologicals (Littleton, Colo., USA). Anti-β-actin (sc-47778) and anti-GAPDH (sc-47724) antibody was purchased from Santa Cruz Biotechnology (Santa Cruz, Calif., USA).

HCC827 = experiment: MTT cell viability assay, HCC827; type: cell-based, Human; details: 48 hours
Method: Human NSCLC cell lines A549, H1437, H2087, H522, and HCC827 were obtained from the Korean Cell Line Bank (KCLB, Seoul, Korea). These cells were cultured in RPMI-1640 medium (Gibco, N.Y., USA) supplemented with 10% FBS (Gibco) and 1% penicillin-streptomycin (HyClone Laboratories, Logan, Utah, USA). All cell lines were cultured under standard conditions (5% CO2, humid environment, 37° C.). A549 cells were seeded at a density of 1×10^4 cells/well and H1437, H2087, H522, HCC827, and MRCS cells at a density of 2×10^4 cells/well in 96-well plates and were cultured until cells reach approximately 70-80% confluency. The NSCLC cells were treated with plant hormones for 48 hours. Stock solution of each plant hormone was diluted with culture medium, wherein concentrations of DMSO, water, methanol, and ethanol in the culture medium were below 1% (v/v). The half-maximal inhibitory concentration (IC50) was calculated using CompuSyn software (ComboSyn Inc., Paramus, N.J., USA).
The inhibitory effect of plant hormones and their derivatives was investigated on 5 NSCLC cell lines (A549, H1437, H2087, H522, and HCC827). The NSCLC cells were treated with ABA, Cor, ethephon, GR-24, IAA, KR, MJ, N6b, N6i, oTR, and SS-HCS at concentrations of 0.1, 0.5, 1, 5, 10, 50, and 100 μM. Cell viability and IC50 values for 48 hours were investigated by performing the MTT assay.

xenograft tumor tissues = experiment: GC-MS and nanoESI-MS metabolite and lipid profiling of xenograft tumor tissues; type: in vivo, nude mice (female, BALB/cSlc-nu/nu)
Method: The tumor tissue was weighed above 25 mg, and 0.3 mL of ice-cold methanol containing 0.1% BHT was added, followed by homogenization for 1 minutes. Homogenized samples were centrifuged at 10,000×g for 15 minutes at 4° C. The supernatant corresponding to 10 mg of the tissue was used, and metabolites and lipids were extracted using modified Folch method.
To perform metabolite and lipid analyses of the extracted samples of NSCLC cells and xenograft tumor tissues, GC-MS and nanoESI-MS analyses were conducted according to a previously described method. For quality control (QC), the equal volume of mixture was taken from each sample to be analyzed.
Raw data files of the lipid analysis (*.raw) were converted into *.mzXML format using the Proteo Wizard MSConvert software. The metabolite and lipid mass spectra were converted using the Expressionist® MSX software (version 2013.0.39, Genedata, Basel, Switzerland) for data processing. The data obtained from NSCLC cells were divided by the peak intensity of the internal standard and total protein content for normalization. The data obtained from the NSCLC xenograft model were divided by the peak intensity of the internal standard for normalization. The data obtained thereby were used for fold-change analysis using the MetaboAnalyst (version 5.0; http://www.metaboanalyst.ca). SPSS software (version 26, IBM, Somers, N.Y.) was used for significance examination for the results, and identification was conducted by Student's t-test and Mann-Whitney test. All data were mean-centered and pretreated to Pareto scaling for principal component analysis (PCA) and orthogonal partial least-squares discriminant analysis (OPLS-DA), performed using the SIMCA-P software (version 15.0.2, Sartorius Stedim Data Analytics AB, Umea, Sweden). Cross validations and permutation tests (100 times) were performed to evaluate the goodness of fit value and predictability of the OPLS-DA model. Volcano plots were generated using the GraphPad Prism 9.0.
oTR-induced alterations of metabolic and lipidomic profiles were analyzed using 5 NSCLC cell lines (A549, H1437, H2087, H522, and HCC827) and xenograft tumor tissues by performing GC-MS and nanoESI-MS analyses. The relative changes in identified metabolites and intact lipid species are shown as fold-changes. Myo-inositol, amino acids (β-alanine, aspartate, serine, threonine, glutamate, glycine, proline, and tyrosine), organic acids (malate and lactate), pyrimidines (uracil and uridine), creatinine, hypoxanthine, and putrescine decreased in oTR-treated NSCLC cells compared to those in NSCLC cells. These metabolites were the outcomes of consistent and significant alterations in 3 NSCLC cell lines compared to those of respective controls.

[2] = both oTR groups (100 and 150 mg/kg)

Structure (SMILES): OC[C@H]1O[C@@H](n2cnc3c(NCc4ccccc4O)ncnc32)[C@H](O)[C@@H]1O [oTR, ortho topolin riboside]
- basal and compensatory glycolytic rates (glycoPER) (A549 cells): significant decrease
- cleaved caspase-3 ([1]; 50 μM oTR): significantly increased
- level of LC-III, an autophagy marker ([1]; FIG. 6C): did not change
- phosphorylated AKT (p-AKT) ([1]; oTR 48 hours): significantly decreased
- phosphorylated ERK1/2 (p-ERK) ([1]; oTR 48 hours): significantly decreased
- IC50 (HCC827): 29.7 ± 2.56 µM
- PC, PE, PG, and PI species levels (xenograft tumor tissues; 100 mg/kg and 150 mg/kg): increase
- PS species levels (xenograft tumor tissues; 150 mg oTR-treated group vs control): increased
- level of aspartate, ascorbate, glucose, glutamate, ornithine, phenylalanine, proline, serine, threonine (xenograft tumor tissues; 150 mg/kg group vs control): significant reduction
- citrate, ornithine, and uridine levels (xenograft tumor tissues; [2]): significantly decreased
- β-alanine, aminomalonate, glycerol, glycine, and uracil levels (xenograft tumor tissues; [2]): increased
